Source: patent US12571791B2, “Methods for evaluating cardiac safety of drug using cardiomyocytes derived from human stem cells” (NEXEL CO., LTD., priority 2021, dated 2026)

System: human stem cell-derived cardiomyocytes
Procedure: First, step G-1, replaces the maintenance medium in the MEA plate that has undergone the 3rd incubation step (step F-3) with a fresh maintenance medium, and places the MEA plate into the cell culture incubator at 37° C. and 5% CO2 for 3 to 5 hours (preferably 3 hours) for stabilization of cells.
Next, the first set of measurement values on beat rate, spike amplitude, and field potential duration of the human stem cell-derived cardiomyocytes are taken (step G-2) with the MEA measurement device for the MEA plate that has undergone cell stabilization step (step G-1).
After the completion of the first measurement, a portion of the maintenance medium, which corresponds to 1/10 of the total volume in the well, is removed from wells of the MEA plate that has undergone the stabilization process. […]
Here, raw files stored in the MEA measurement device program are loaded, and the desired section of the data is re-recorded and saved as a CSV file. Then the drug's effect on the field potential of cardiomyocytes is evaluated by the changes in the reaction parameter, based on the first and second measurement values which include beat interval, spike amplitude, and field potential duration, to various concentrations of the drug.
In addition, the cardiac toxicity of a drug can be determined through changes in FPDcF and spike amplitude. […]

## Cc1cccc(C)c1OCC(C)N (stereo not shown) [Mexiletine]
  change in spike amplitude: decrease in the spike amplitude according to the drug concentration
